{"source": "patent US20090208448A1", "about": "“Inhibition of angiogenesis” (priority 2008, published 2009)", "key": {"[1]": {"system": "LNCaP xenograft tumors", "assay": "Tumor membrane cholesterol analysis", "format": "in vivo, SCID mice", "conditions": "ezetimibe main effect p<0.0001, n=9/group", "method": "Tumor cholesterol analysis. Tumors were finely minced in phosphate buffered saline (PBS) on ice and the level of cholesterol was determined as described previously (Boucher, K., Siegel, C. S., Sharma, P., Hauschka, P. V., and Solomon, K. R. 2006. HMG-CoA reductase inhibitors induce apoptosis in pericytes. Microvasc Res 71:91-102)."}, "[2]": {"system": "LNCaP xenograft tumors", "assay": "Microvessel density (MVD), CD31 analysis", "format": "in vivo, SCID mice", "conditions": "ezetimibe p=0.013, larger effects with HFHC (p=0.01)", "method": "(§1) Immunofluorescence. Tumor samples frozen in OCT were sectioned (3-20 μm thick), mounted on Superfrost slides (ThermoFisher Scientific, Waltham, Mass.), and air-dried for 30 min. Sections were then fixed using cold acetone (5 min), followed by 1:1 acetone:chloroform (5 min), and then acetone (5 min) or by using 4% PFA at room temp (30 min) followed by 0.025% PBS/Triton X-100 (5 min) to permeabilize the cells. Sections were washed with cold PBS 3× for 5 min each and were incubated in a protein blocking solution of PBS/Tween (0.1%) with 5% bovine serum albumin (BSA; Sigma) at room temp (30 min) and were then washed in cold PBS 3× for 5 min each. The appropriate primary antibodies diluted 1:200-1:1000 in blocking solution were incubated with the sections overnight at 4° C. Sections were washed 3× for 5 min in cold PBS, and incubated in blocking solution (10 min). The sections were then incubated with the appropriate fluorescent secondary reporter antibodies diluted 1:500-1:5000 in blocking solution at room temp (30 min) followed by washing 3× in PBS. Nuclei were counter-stained with DAPI. Double staining of CD31 with TSP-1 and CD31 with SMA were performed sequentially as described above. […] Ki67 positive cells and nuclei were quantified using AxioVision 4.0 software."}, "[3]": {"system": "LNCaP xenograft tumors", "assay": "MVD, caveolin-1 analysis (immunoblotting and immunofluorescence)", "format": "in vivo, SCID mice", "method": "as §1, with “min).” for “min). The sections were then incubated with the appropriate fluorescent secondary reporter antibodies diluted 1:500-1:5000 in blocking solution at room temp (30 min) followed by washing 3× in PBS. Nuclei were counter-stained with DAPI. Double staining of CD31 with TSP-1 and CD31 with SMA were performed sequentially as described above.”\nLysates and Immunoblotting. […] Protein concentrations were determined by microBCA (Pierce/Thermo Scientific) and equal amounts of the lysates were subjected to SDS-PAGE and immunoblotting as described previously (Zhuang, L., Kim, J., Adam, R. M.-, Solomon, K. R., and Freeman, M. R. 2005. Cholesterol targeting alters lipid raft composition and cell survival in prostate cancer cells and xenografts. J Clin Invest 115:959-968)."}, "[4]": {"assay": "Serology (triglyceride, liver function tests) and feeding observation", "format": "in vivo, SCID mice", "method": "(§2) Mice and Tumor Xenografts. 5 week old SCID mice were obtained from the Massachusetts General Hospital and were fed a low fat/no cholesterol diet (LFNC) (Research Diets, New Brunswick, N.J. diet # D12102) for two weeks, blood was drawn from the saphenous tail vein and the serum cholesterol concentration was determined using the Infinity Cholesterol Liquid Stable Reagent (Thermo Electron Corp.). For intact (non-castrated) mice, the animals were divided into the high fat/high cholesterol diet (HFHC) (Research Diets, diet # D12108) and LFNC groups with and without ezetimibe (30 mg/kg/day; Schering-Plough, New Brunswick, N.J.) and the mice continued on these diets for four weeks. For castrated mice, the mice were divided into 4 groups, 2 groups were castrated, and 2 groups were left intact. The mice were fed either the LFNC, or a low fat/high cholesterol diet (LFHC) (Research Diets, diet #D12104) for 80 days. Xenografts were initiated by injecting LNCaP (2×10^6 per site) with 1:1 volume of Matrigel (BD BioSciences, San Jose, Calif.) into the 4 dorsal quadrants of each mouse. In order to eliminate any injection bias, the mice were randomized prior to implantation and the implanter was blinded to which group each mouse was assigned. All animal procedures were done in compliance with Children's Hospital Boston's animal care and use policies. Tumors were measured daily from the initiation of the first palpable tumors and the mice sacrificed prior to reaching the maximum tumor burden (13-23 days post implantation). Terminal bleeds were taken (Cardiac puncture) for serology (triglyceride, bilirubin and other liver function tests were performed in the Dept. of Laboratory Medicine, Children's Hospital Boston, androgen levels were determined by a testosterone EIA, Diagnostic Systems Laboratories, Webster, Tex.). Tumors were removed, measured, weighed and either placed in OCT solution (Tissue-Tek, Torrance, Calif.) or snap frozen."}, "[5]": {"system": "VEGF or bFGF", "assay": "VEGF or bFGF expression in the cohorts", "format": "in vivo, SCID mice", "conditions": "between the diet/drug cohorts, data not shown"}, "[6]": {"system": "LNCaP xenograft tumors", "assay": "Tumor cell apoptosis (TUNEL staining)", "format": "in vivo, SCID mice", "conditions": "ezetimibe main effect p<0.0001, no synergy with diet (p=0.85)", "method": "Apoptosis. Percentage of apoptotic cells in tumor sections was determined by TUNEL assay using the In Situ Cell Death Detection Kit (Roche Diagnostics Corp. Indianapolis, Ind.). Briefly, frozen tumor sections were fixed in 4% paraformaldehyde (PFA), permeabilized and the DNA stained with fluorescein following the manufacturer's instructions. Nuclei were counterstained with DAPI (Vector Labs, Burlingame, Calif.). Images were captured using a Zeiss microscope and the positive cells and nuclei were counted using Axiovision software 4.0."}, "[7]": {"system": "LNCaP xenograft tumors", "assay": "Tumor hemoglobin quantification", "format": "in vivo, SCID mice", "conditions": "n=20", "method": "Hemoglobin Assay. Tumors were finely minced in 1 ml of fresh PBS on ice. The minced tissue suspensions were centrifuged at 10,000 g at 4° C. (2 min) and the supernatant was removed. The optical density (OD) of the clarified supernatants was read at 650 nm (background) and 530 nm (hemoglobin) using a spectrophotometer (Boyle, M. D., and Ohanian, S. H. 1980. Evidence for the influence of the initial complement components on the assembly and activity of the membrane attack complex. J Immunol 124:2824-2827; Gee, A. P., Boyle, M. D., and Borsos, T. 1980. Distinction between C8-mediated and C8/C9-mediated hemolysis on the basis of independent 86Rb and hemoglobin release. J Immunol 124:1905-1910)."}, "[8]": {"system": "serum cholesterol", "assay": "Serum cholesterol levels in diet/ezetimibe SCID mouse cohorts (Infinity colorimetric assay)", "format": "in vivo, SCID mice", "conditions": "ezetimibe 30 mg/kg/d, 4 weeks, both LFNC and HFHC diet groups, drug F=23.48, p<0.001", "method": "as §2, with “The mice were fed either the LFNC, or a low fat/high cholesterol diet (LFHC) (Research Diets, diet #D12104) for 80 days. Xenografts were initiated by injecting LNCaP (2×10^6 per site) with 1:1 volume of Matrigel (BD BioSciences, San Jose, Calif.) into the 4 dorsal quadrants of each mouse. In order to eliminate any injection bias, the mice were randomized prior to implantation and the implanter was blinded to which group each mouse was assigned. All animal procedures were done in compliance with Children's Hospital Boston's animal care and use policies.” left out, “frozen. […]” for “frozen.”"}, "[9]": {"conditions": "literature (Jurado 2004; Knopp 2003); cited from earlier work"}, "[10]": {"system": "LNCaP xenograft tumors", "assay": "Pericyte coverage of microvessels (SMA staining)", "format": "in vivo, SCID mice", "conditions": "ezetimibe groups, p<0.0001", "method": "as §1"}, "[11]": {"system": "LNCaP xenograft tumors", "assay": "Tumor cell proliferation (Ki67 staining)", "format": "in vivo, SCID mice", "method": "Immunofluorescence. Tumor samples frozen in OCT were sectioned (3-20 μm thick), mounted on Superfrost slides (ThermoFisher Scientific, Waltham, Mass.), and air-dried for 30 min. Sections were then fixed using cold acetone (5 min), followed by 1:1 acetone:chloroform (5 min), and then acetone (5 min) or by using 4% PFA at room temp (30 min) followed by 0.025% PBS/Triton X-100 (5 min) to permeabilize the cells. Sections were washed with cold PBS 3× for 5 min each and were incubated in a protein blocking solution of PBS/Tween (0.1%) with 5% bovine serum albumin (BSA; Sigma) at room temp (30 min) and were then washed in cold PBS 3× for 5 min each. The appropriate primary antibodies diluted 1:200-1:1000 in blocking solution were incubated with the sections overnight at 4° C. Sections were washed 3× for 5 min in cold PBS, and incubated in blocking solution (10 min). The sections were then incubated with the appropriate fluorescent secondary reporter antibodies diluted 1:500-1:5000 in blocking solution at room temp (30 min) followed by washing 3× in PBS. Nuclei were counter-stained with DAPI. Double staining of CD31 with TSP-1 and CD31 with SMA were performed sequentially as described above. Blood vessel analysis was done using IPLab software (BD Biosciences Bioimaging, Rockville, Md.) as previously described (Bielenberg, D. R., Hida, Y., Shimizu, A., Kaipainen, A., Kreuter, M., Kim, C. C., and Klagsbrun, M. 2004. Semaphorin 3F, a chemorepulsant for endothelial cells, induces a poorly vascularized, encapsulated, nonmetastatic tumor phenotype. J Clin Invest 114:1260-1271). Thombospndin-1 (TSP-1) analysis was done using the outline spline in AxioVision 4.0 software. Ki67 positive cells and nuclei were quantified using AxioVision 4.0 software."}, "[12]": {"system": "LNCaP human prostate tumor xenografts", "assay": "Growth of implanted LNCaP prostate tumor xenografts (volume, wet weight, take)", "format": "in vivo, SCID mice", "method": "as §2\nFollowing alteration of cholesterol levels, the mice from Example 3 were injected subcutaneously with 2×10^6 LNCaP cells in their flanks (4 tumors/mouse). Regimens were continued following implantation, and the experiment continued for 13 days following the initial appearance of tumors. Tumor volume was measured daily (FIG. 2B). […] The overall effect of diet and ezetimibe was independent and additive, not synergistic. […] Tumor take was >95% in all groups and no significant differences in tumor take were observed."}, "[13]": {"system": "LNCaP xenograft tumors", "assay": "Fibroblast staining of tumor sections", "format": "in vivo, SCID mice", "conditions": "HFHC condition, p=0.03, n=55/group", "method": "as §1"}, "[14]": {"system": "thrombospondin-1 (TSP-1)", "assay": "Thrombospondin-1 (TSP-1) levels in tumor sections", "format": "in vivo, SCID mice", "conditions": "ezetimibe p<0.0001", "method": "as §1"}}, "note": "“Also recorded” adds a separate entry of the source."}
{"smiles": "O=C1[C@H](CC[C@H](O)c2ccc(F)cc2)[C@@H](c2ccc(O)cc2)N1c1ccc(F)cc1", "note": "[ezetimibe]", "values": [{"measurement": "tumor cholesterol levels (membranes)", "setting": "[1]", "result": "highly significant main effects; also recorded: independently affected"}, {"measurement": "microvessel density (relative level of CD31 staining)", "setting": "[2]", "result": "highly significant main effect; also recorded: significantly suppressed"}, {"measurement": "average caveolin-1 signal, immunoblotting", "setting": "[3]; both diet conditions, p=0.027, n=6/group", "result": "significant drug effect in lowering caveolin"}, {"measurement": "relative level of caveolin-1 staining, immunofluorescence", "setting": "[3]; ezetimibe p<0.0001, n=43/group", "result": "highly significant main effects"}, {"measurement": "liver function (AST, ALP, bilirubin etc)", "setting": "[4]; any mouse, all groups, data not shown", "result": "no liver dysfunction"}, {"measurement": "serum triglyceride levels", "setting": "[4]; ezetimibe cohorts, data not shown", "result": "no significant reduction; also recorded: nor were triglyceride levels significantly reduced"}, {"measurement": "feeding behavior", "setting": "[4]; observation, calorie intake 21.18 Kcal/d", "result": "did not alter feeding behavior"}, {"measurement": "VEGF or bFGF expression", "setting": "[5]", "result": "no differences"}, {"measurement": "tumor cell apoptosis (relative level of TUNEL staining)", "setting": "[6]", "result": "highly significant main effects; also recorded: significantly increased"}, {"measurement": "relative hemoglobin/mg tumor tissue", "setting": "[7]; HFHC+Z vs HFHC", "result": "statistical significance"}, {"measurement": "relative hemoglobin/mg tumor tissue", "setting": "[7]; LFNC vs LFNC+Z", "result": "not statistically different"}, {"measurement": "serum cholesterol", "setting": "[8]", "result": "significant effects"}, {"measurement": "serum cholesterol", "setting": "[8]; listed as Ezetimibe", "result": "significant reductions"}, {"measurement": "triglyceride levels in humans", "setting": "[9]", "result": "modest effect"}, {"measurement": "pericyte coverage of vessels (relative level of SMA staining)", "setting": "[10]", "result": "highly significant main effects; also recorded: dramatically increased"}, {"measurement": "relative level of Ki67 staining", "setting": "[11]; HFHC diet w/ezetimibe (HFHC alone 41.16)", "result": "30.32 (95% CI; 26.96-33.68)"}, {"measurement": "relative level of Ki67 staining", "setting": "[11]; LFNC diet w/ezetimibe (LFNC alone 28.78)", "result": "25.57 (95% CI; 22.21-28.93)"}, {"measurement": "tumor cell proliferation (Ki67), effect in words", "setting": "[11]; ezetimibe by diet interaction p=0.027, magnitude depends on the diet", "result": "significant effect on lowering proliferation"}, {"measurement": "tumor wet weight at sacrifice", "setting": "[12]; LFNC diet with drug, p=0.021 vs HFHC (0.88±0.71 g)", "result": "0.63 ± 0.55", "unit": "g"}, {"measurement": "tumor wet weight at sacrifice", "setting": "[12]; LFNC+Z group, p=0.021 vs HFHC (0.88±0.71)", "result": "0.63±0.55", "unit": "average grams/tumor site"}, {"measurement": "tumor take", "setting": "[12]; all diet/drug groups, no significant differences", "result": "> 95", "unit": "%"}, {"measurement": "tumor growth rates (tumor volume)", "setting": "[12]; ezetimibe 30 mg/kg/day added to diet, 13 days from first appearance of tumors, p=0.035", "result": "Significantly reduced"}, {"measurement": "relative level of fibroblast staining", "setting": "[13]", "result": "statistically significant ezetimibe effect"}, {"measurement": "TSP-1 levels in tumors (relative level of TSP-1 staining)", "setting": "[14]", "result": "highly significant main effects; also recorded: enhanced"}]}
